In PubChem BioAssay (NCI):
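Grown in 96-well plates, cells were treated for 48 hours with each compound at five concentrations. Insufficient inhibition: endpoint recorded as highest concentration tested. TGI: total growth inhibition.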

Assays:
Experiment in all cases: NCI tumour cell line growth inhibition, 48 h
SF-539 CNS = test system: SF-539 CNS
HOP-92 NSCLC = test system: HOP-92 NSCLC
NCI-H460 lung = test system: NCI-H460 lung
OVCAR-5 ovarian = test system: OVCAR-5 ovarian
UACC-62 melanoma = test system: UACC-62 melanoma
RXF 393 renal = test system: RXF 393 renal
TK-10 renal = test system: TK-10 renal
DMS 273 small cell lung = test system: DMS 273 small cell lung
HT29 colon = test system: HT29 colon
RPMI-8226 leukemia = test system: RPMI-8226 leukemia
MOLT-4 leukemia = test system: MOLT-4 leukemia
SK-OV-3 ovarian = test system: SK-OV-3 ovarian
NCI-H226 lung = test system: NCI-H226 lung
HL-60(TB) leukemia = test system: HL-60(TB) leukemia
A549 NSCLC = test system: A549 NSCLC
OVCAR-3 ovarian = test system: OVCAR-3 ovarian
U251 CNS = test system: U251 CNS
CCRF-CEM leukemia = test system: CCRF-CEM leukemia
SW-620 colon = test system: SW-620 colon
DU-145 prostate = test system: DU-145 prostate

| SMILES | TGI (SF-539 CNS) | TGI (HOP-92 NSCLC) | TGI (NCI-H460 lung) | TGI (OVCAR-5 ovarian) | TGI (UACC-62 melanoma) | TGI (RXF 393 renal) | TGI (TK-10 renal) | TGI (DMS 273 small cell lung) | TGI (HT29 colon) | TGI (RPMI-8226 leukemia) | TGI (MOLT-4 leukemia) | TGI (SK-OV-3 ovarian) | TGI (NCI-H226 lung) | TGI (HL-60(TB) leukemia) | TGI (A549 NSCLC) | TGI (OVCAR-3 ovarian) | TGI (U251 CNS) | TGI (CCRF-CEM leukemia) | TGI (SW-620 colon) | TGI (DU-145 prostate) |
| --- | --- | --- | --- | --- | --- | --- | --- | --- | --- | --- | --- | --- | --- | --- | --- | --- | --- | --- | --- | --- |
| OC1[C@H]([C@H]2CCCC[C@@H]2O)CCC[C@@H]1[C@@H]1CCCC[C@H]1O (some centres undefined) | > 100 µM | > 100 µM | > 100 µM | > 100 µM | > 100 µM | > 100 µM | > 100 µM | > 100 µM | > 100 µM | > 100 µM | > 100 µM | > 100 µM | > 100 µM | > 100 µM | > 100 µM | > 100 µM | > 100 µM | > 100 µM | > 100 µM | – |
| ON/N=C/c1cc2c(cc1Br)OCO2 | > 386 µM | > 386 µM | > 386 µM | > 386 µM | > 386 µM | > 386 µM | > 386 µM | > 386 µM | > 386 µM | > 386 µM | > 386 µM | > 386 µM | > 386 µM | > 386 µM | > 386 µM | > 386 µM | > 386 µM | > 386 µM | > 386 µM | – |
| CCNC(C)Cc1ccccc1 (centres undefined) | > 100 µM | > 100 µM | > 100 µM | > 100 µM | > 100 µM | > 100 µM | > 100 µM | > 100 µM | > 100 µM | > 100 µM | – | > 100 µM | > 100 µM | > 100 µM | > 100 µM | > 100 µM | > 100 µM | > 100 µM | > 100 µM | – |
| CC(=O)OC12/C(=N/O)CCCCCC1c1ccccc12 (centres undefined) | – | – | > 100 µM | – | > 100 µM | > 100 µM | > 100 µM | > 100 µM | > 100 µM | > 100 µM | > 100 µM | > 100 µM | > 100 µM | > 100 µM | > 100 µM | – | > 100 µM | 92.3 µM | > 100 µM | – |
| CCC(C)n1c(C)nc2c1C(=O)c1ccccc1C2=O (centres undefined) | > 100 µM | > 100 µM | 50.8 µM | – | > 100 µM | > 100 µM | > 100 µM | > 100 µM | > 100 µM | – | > 100 µM | > 100 µM | > 100 µM | > 100 µM | > 100 µM | > 100 µM | > 100 µM | > 100 µM | > 100 µM | – |
| CO/N=C(\C)c1ccc(Nc2c3ccccc3nc3occc23)cc1 | 2.28 µM | 42 µM | 9.05 µM | 32.2 µM | 16.3 µM | 0.877 µM | 18.4 µM | – | 2.16 µM | 12.1 µM | 33.5 µM | 17.2 µM | 28.5 µM | 2.23 µM | 20 µM | 2.85 µM | 10.9 µM | 35.9 µM | 18.9 µM | 10.3 µM |
| CCc1ccc(N=Cc2cc(OC)c(OC)c(OC)c2)cc1 | > 100 µM | > 100 µM | > 100 µM | > 100 µM | > 100 µM | > 100 µM | > 100 µM | > 100 µM | > 100 µM | 47.2 µM | > 100 µM | > 100 µM | – | > 100 µM | > 100 µM | > 100 µM | > 100 µM | > 100 µM | 28.7 µM | – |
| CCCCCC(C)(C)CCC(=O)OC1OC(COC2OC(COC3OC(CO)C(O)C(O)C3O)C(O)C(O)C2O)C(O)C(O)C1O (centres undefined) | > 100 µM | > 100 µM | > 100 µM | > 100 µM | > 100 µM | > 100 µM | > 100 µM | – | > 100 µM | > 100 µM | > 100 µM | > 100 µM | > 100 µM | > 100 µM | > 100 µM | > 100 µM | > 100 µM | > 100 µM | > 100 µM | > 100 µM |
| CC1(C)CCC[C@@]2(C)C1CCC1(C)C(CCc3ccoc3)/C(=C/OS(=O)(=O)O)CCC12 (some centres undefined) (tested in a mixture with another compound) | > 100 µM | 63.2 µM | > 100 µM | > 100 µM | > 100 µM | > 100 µM | > 100 µM | > 100 µM | > 100 µM | > 100 µM | 79.7 µM | > 100 µM | > 100 µM | > 100 µM | > 100 µM | > 100 µM | > 100 µM | > 100 µM | > 100 µM | – |
| COC(=O)CCc1cc(OC)c(O)c(C(Cc2ccc(OC)c(OC)c2)C(=O)OC)c1 (centres undefined) | > 100 µM | > 100 µM | > 100 µM | > 100 µM | > 100 µM | > 100 µM | > 100 µM | – | > 100 µM | > 100 µM | > 100 µM | > 100 µM | > 100 µM | > 100 µM | > 100 µM | > 100 µM | > 100 µM | > 100 µM | > 100 µM | > 100 µM |
| O=C(/C=C/c1ccc(OCCCOc2ccc(/C=C/C(=O)c3ccccc3)cc2)cc1)c1ccccc1 | > 100 µM | – | > 100 µM | – | > 100 µM | > 100 µM | > 100 µM | > 100 µM | > 100 µM | > 100 µM | > 100 µM | – | > 100 µM | > 100 µM | > 100 µM | > 100 µM | – | > 100 µM | > 100 µM | – |
| CN(C)CCOc1cccc2c1C(=O)c1ccccc1C2=O | 22.6 µM | 29 µM | 19.2 µM | 40.8 µM | 29.8 µM | 27.3 µM | 66.6 µM | 21.7 µM | 28.7 µM | – | 21.5 µM | 81.2 µM | 22.2 µM | 29.4 µM | 45.4 µM | 64 µM | 72.5 µM | 64.9 µM | 43.7 µM | – |
| Nc1cc2c3c(c1)Oc1cc(N)cc4c1C3c1c(cc(N)cc1O4)O2 | 46.2 µM | > 100 µM | > 100 µM | > 100 µM | > 69.6 µM | 29 µM | > 100 µM | – | > 63.1 µM | 52.2 µM | > 100 µM | > 100 µM | 12.8 µM | 52.6 µM | > 100 µM | 51.6 µM | > 100 µM | 81.5 µM | > 100 µM | 46.7 µM |
| CC1=NCCN=C(C)C1N=Nc1ccc2nc(C)[nH]c2c1 | 42.5 µM | 22.5 µM | 52.1 µM | 39.9 µM | 31.5 µM | 40.1 µM | 42.9 µM | – | 50.9 µM | 17.4 µM | 23.6 µM | 39.2 µM | 44.1 µM | 9.33 µM | 19.6 µM | 44.3 µM | > 100 µM | 16.8 µM | 33.4 µM | 30.9 µM |
| Cc1ccccc1C(=O)c1c(O)c2c(c(O)c1Br)CCCC2 | 33.4 µM | 40 µM | 56.6 µM | 34.6 µM | 29 µM | 33.7 µM | 31.7 µM | 35.4 µM | 66.6 µM | 57.5 µM | 31.4 µM | 43.6 µM | 58.4 µM | 23 µM | 54.1 µM | 27.1 µM | 31.5 µM | – | 34.1 µM | – |
| Cc1ccc(S(=O)(=O)c2c(N)c3nc4ccccc4n3c3nc4ccccc4nc23)cc1 | > 100 µM | – | > 100 µM | > 100 µM | > 100 µM | – | – | > 100 µM | > 100 µM | > 100 µM | > 100 µM | > 100 µM | > 100 µM | – | > 100 µM | > 100 µM | > 100 µM | > 100 µM | > 100 µM | – |
| Cc1c2c(c(C)n1-c1ccccc1)C(=O)N(CCCCN1CCN(c3ccccc3)CC1)C2=O | 26.5 µM | 46.3 µM | 47.4 µM | > 100 µM | 36.8 µM | > 100 µM | > 100 µM | – | 10.1 µM | 47.3 µM | 26.2 µM | > 100 µM | 40.3 µM | 17.2 µM | > 100 µM | 88.5 µM | 84.9 µM | 26.1 µM | > 100 µM | > 100 µM |
| Cc1cc(N(CCC#N)CCC#N)ccc1/C=C1N=C(/C=C\c2ccccc2)OC\1=O | > 100 µM | > 100 µM | > 100 µM | > 100 µM | > 100 µM | > 100 µM | > 100 µM | > 100 µM | > 100 µM | > 100 µM | > 100 µM | > 100 µM | > 100 µM | > 100 µM | > 100 µM | > 100 µM | > 100 µM | > 100 µM | > 100 µM | – |
